Measurements reported in DBAASP.
Converted amounts (≈) assume the structure as drawn.

Tests used:
Assay in all cases: ≥ marks a high value that may be exact or a test limit, other limits are often not marked, values filed in µg/mL are converted to µM
Escherichia coli BL21 = test system: Escherichia coli BL21
[1] = test system: Xanthomonas axonopodis pv. phaseoli ATCC 9563
[2] = test system: Streptococcus pyogenes GAS M1T1
Pseudomonas syringae = test system: Pseudomonas syringae
[3] = test system: Pseudomonas aeruginosa PAO1
[4] = test system: Klebsiella pneumoniae CGMCC 1.1736
[5] = test system: Staphylococcus aureus CGMCC 1.8721
[6] = test system: Bacillus subtilis CGMCC 1.3376
[7] = test system: Staphylococcus epidermidis CGMCC 1.4260
[8] = test system: Escherichia coli CGMCC 1.8732
[9] = test system: Pseudomonas aeruginosa CGMCC 1.2421
[10] = test system: Staphylococcus aureus ATCC 6538
[11] = test system: Bacillus subtilis ATCC 6633
[12] = test system: Micrococcus luteus NCIMB 13267
[13] = test system: Pseudomonas aeruginosa ATCC 27853
Escherichia coli K-12 = test system: Escherichia coli K-12
[14] = test system: Staphylococcus epidermidis ATCC 51625
[15] = test system: Staphylococcus aureus ATCC BAA-44
[16] = test system: Escherichia coli ATCC 11775
[17] = test system: Staphylococcus aureus ATCC 33591
[18] = test system: Staphylococcus aureus ATCC 29213
[19] = test system: Staphylococcus epidermidis ATCC 12228
[20] = test system: Pseudomonas aeruginosa ATCC 25668
[21] = test system: Acinetobacter baumannii ATCC 19606
[22] = test system: Enterococcus faecalis ATCC 7080
[23] = test system: Escherichia coli ATCC 25322
[24] = test system: Staphylococcus aureus ATCC 25923
[25] = test system: Vibrio fluvialis CGMCC 1.1609
[26] = test system: Staphylococcus epidermidis CGMCC 1.2429
[27] = test system: Aeromonas hydrophila CGMCC 1.0927
[28] = test system: Candida albicans CGMCC 2.2411
[29] = test system: Pseudomonas fluorescens CGMCC 1.0032
[30] = test system: Bacillus subtilis CGMCC 1.108
[31] = test system: Vibrio alginolyticus CGMCC 1.1833
[32] = test system: Micrococcus luteus CGMCC 1.634
[33] = test system: Corynebacterium glutamicum CGMCC 1.1886
Escherichia coli MC1061 = test system: Escherichia coli MC1061
[34] = test system: Vibrio harveyi CGMCC 1.1593
[35] = test system: Micrococcus luteus CGMCC 1.0634
[36] = test system: Shigella flexneri CGMCC 1.1868
[37] = test system: Staphylococcus aureus CGMCC 1.363
[38] = test system: Vibrio parahaemolyticus CGMCC 1.1615
Aeromonas sobria = test system: Aeromonas sobria
Edwardsiella tarda = test system: Edwardsiella tarda

Q: How did the MIC (Escherichia coli BL21) turn out when `CC[C@H](C)[C@H](NC(=O)[C@H](CCCCN)NC(=O)[C@H](CC(N)=O)NC(=O)[C@H](CCCCN)NC(=O)[C@H](CC(C)C)NC(=O)[C@H](Cc1ccc(O)cc1)NC(=O)[C@H](CCC(N)=O)NC(=O)[C@H](CCCN=C(N)N)NC(=O)[C@@H](NC(=O)[C@@H](NC(=O)[C@H](CCCCN)NC(=O)[C@H](CCCCN)NC(=O)CNC(=O)[C@H](C)N)[C@@H](C)O)[C@@H](C)CC)C(=O)N[C@@H](CCCCN)C(=O)N[C@@H](CCCCN)C(=O)N[C@@H](CCCCN)C(=O)N[C@@H](Cc1c[nH]c2ccccc12)C(=O)N[C@@H](CCCN=C(N)N)C(=O)N[C@@H](CCCCN)C(=O)N[C@@H](C)C(=O)N[C@H](C(=O)N[C@H](C(=O)N[C@@H](C)C(=O)N[C@@H](Cc1c[nH]c2ccccc12)C(=O)O)[C@@H](C)CC)C(C)C` [AGKKTIRQYLKNKIKKKWRKAVIAW] was run?
A: The MIC was 8 µM (≈ 24.5 µg/mL).

Q: And the MIC [1]?
A: The MIC was 1 µM (≈ 3.06 µg/mL).

Q: What about the MIC [2] of the same compound?
A: Its MIC is 8 µM (≈ 24.5 µg/mL).

Q: What about the MIC (Pseudomonas syringae) of the same compound?
A: Its MIC is 8 µM (≈ 24.5 µg/mL).

Q: And the MIC [3]?
A: Its MIC is 10 µM (≈ 30.6 µg/mL).

Q: What does the source list for `CC[C@H](C)[C@H](NC(=O)[C@H](C)N)C(=O)NCC(=O)N[C@@H](CO)C(=O)N[C@H](C(=O)N[C@@H](CC(C)C)C(=O)NCC(=O)N[C@@H](CCCN=C(N)N)C(=O)N[C@@H](CC(C)C)C(=O)N[C@@H](C)C(=O)N[C@@H](CCCCN)C(=O)NCC(=O)N[C@@H](CC(C)C)C(=O)N1CCC[C@H]1C(=O)N[C@H](C(=O)N[C@@H](CC(C)C)C(=O)N[C@@H](CCCCN)C(=O)N[C@@H](CO)C(=O)N[C@@H](Cc1c[nH]c2ccccc12)C(=O)N[C@H](C(=O)N[C@@H](CCCCN)C(=O)N[C@@H](CC(N)=O)C(=O)N[C@@H](CCCN=C(N)N)C(N)=O)[C@@H](C)CC)[C@@H](C)O)[C@@H](C)CC` [AIGSILGRLAKGLPTLKSWIKNR]?
A: MIC [4]: 25 µM (≈ 62.3 µg/mL); MIC [5]: ≥ 100 µM; MIC [6]: 12.5 µM (≈ 31.2 µg/mL); MIC [7]: 6.25 µM (≈ 15.6 µg/mL); MIC [8]: 25 µM (≈ 62.3 µg/mL); MIC [9]: 25 µM (≈ 62.3 µg/mL)

Q: `CC(C)C[C@H](NC(=O)[C@H](CCCCN)NC(=O)[C@H](C)NC(=O)[C@H](CC(C)C)NC(=O)[C@H](CCCCN)NC(=O)[C@H](CCC(N)=O)NC(=O)[C@H](CCCCN)NC(=O)[C@H](CC(C)C)NC(=O)[C@H](CCCCN)NC(=O)[C@H](CCC(N)=O)NC(=O)[C@H](CC(C)C)NC(=O)[C@H](CCCCN)NC(=O)[C@H](C)NC(=O)[C@H](CCCCN)NC(=O)[C@H](CC(C)C)NC(=O)[C@H](CCCCN)NC(=O)[C@H](C)NC(=O)[C@H](CC(C)C)NC(=O)[C@H](CCCCN)NC(=O)[C@H](CCC(N)=O)NC(=O)[C@@H](N)CCCCN)C(=O)O` [KQKLAKLKAKLQKLKQKLAKL] was tested. Which MIC [10] did it give?
A: Its MIC is greater than 50 µM.

Q: What about the MIC [11] of the same compound?
A: The MIC was 6 µM (≈ 14.7 µg/mL).

Q: And the MIC [12]?
A: Its MIC is 12 µM (≈ 29.4 µg/mL).

Q: And the MIC [13]?
A: The MIC was 12 µM (≈ 29.4 µg/mL).

Q: And the MIC (Escherichia coli K-12)?
A: The MIC was 3 µM (≈ 7.34 µg/mL).

Q: `CC(C)C[C@H](NC(=O)[C@H](Cc1c[nH]c2ccccc12)NC(=O)[C@H](CCCCN)NC(=O)[C@H](CC(C)C)NC(=O)[C@H](Cc1c[nH]c2ccccc12)NC(=O)[C@H](CCCCN)NC(=O)[C@H](CCCCN)NC(=O)[C@H](CC(C)C)NC(=O)[C@H](Cc1c[nH]c2ccccc12)NC(=O)[C@@H](N)CCCCN)C(=O)N[C@@H](CCCCN)C(=O)N[C@@H](CCCCN)C(N)=O` [KWLKKWLKWLKK] was tested. Which MIC [14] did it give?
A: Its MIC is 1.19 µM (≈ 2 µg/mL).

Q: What about the MIC [15] of the same compound?
A: The MIC was 2.37 µM (≈ 4 µg/mL).

Q: And the MIC [16]?
A: Its MIC is 1.19 µM (≈ 2 µg/mL).

Q: What about the MIC [17] of the same compound?
A: Its MIC is 1.19 µM (≈ 2 µg/mL).

Q: And the MIC [18]?
A: The MIC was 1.19 µM (≈ 2 µg/mL).

Q: What about the MIC [19] of the same compound?
A: The MIC was 1.19 µM (≈ 2 µg/mL).

Q: And the MIC [20]?
A: Its MIC is 1.19 µM (≈ 2 µg/mL).

Q: And the MIC [21]?
A: The MIC was 4.75 µM (≈ 8 µg/mL).

Q: What about the MIC [22] of the same compound?
A: Its MIC is 9.49 µM (≈ 16 µg/mL).

Q: How did the MIC [23] turn out when `CC(C)C[C@H](NC(=O)CNC(=O)[C@H](CC(N)=O)NC(=O)[C@@H](NC(=O)[C@@H](NC(=O)CNC(=O)[C@H](CC(C)C)NC(=O)[C@H](C)NC(=O)[C@H](CCCCN)NC(=O)[C@H](CC(N)=O)NC(=O)[C@H](CC(C)C)NC(=O)[C@H](CC(C)C)NC(=O)[C@@H](N)CC(N)=O)[C@@H](C)O)C(C)C)C(=O)N[C@@H](CC(C)C)C(=O)NCC(=O)N[C@@H](CCCN=C(N)N)C(=O)N[C@@H](CO)C(=O)O` [NLLNKALGTVNGLLGRS] was run?
A: Its MIC is no less than 64 µM.

Q: And the MIC [24]?
A: Its MIC is 32 µM (≈ 55.7 µg/mL).

Q: For `CC[C@H](C)[C@H](NC(=O)[C@H](CCCN=C(N)N)NC(=O)CNC(=O)[C@@H](NC(=O)[C@@H]1CCCN1C(=O)[C@H](Cc1ccccc1)NC(=O)[C@H](CCC(N)=O)NC(=O)[C@H](CC(C)C)NC(=O)CNC(=O)[C@H](C)NC(=O)[C@H](CCCN=C(N)N)NC(=O)[C@H](C)NC(=O)[C@H](CO)NC(=O)[C@@H](N)CCCN=C(N)N)C(C)C)C(=O)N[C@@H](Cc1cnc[nH]1)C(=O)N[C@@H](CCCN=C(N)N)C(=O)N[C@@H](Cc1cnc[nH]1)C(=O)N[C@@H](CC(C)C)C(=O)N[C@@H](CCCCN)C(=O)O` [RSARAGLQFPVGRIHRHLK], which MIC [25] is on record?
A: The MIC was no less than 48 µM.

Q: And the MIC [26]?
A: Its MIC is 17 µM (≈ 37.3 µg/mL).

Q: And the MIC [27]?
A: The MIC was 4.24 µM (≈ 9.33 µg/mL).

Q: What about the MIC [28] of the same compound?
A: Its MIC is no less than 48 µM.

Q: What about the MIC [29] of the same compound?
A: Its MIC is 4.24 µM (≈ 9.33 µg/mL).

Q: And the MIC [30]?
A: Its MIC is 4.24 µM (≈ 9.33 µg/mL).

Q: What about the MIC [31] of the same compound?
A: Its MIC is no less than 48 µM.

Q: What about the MIC [32] of the same compound?
A: The MIC was 2.12 µM (≈ 4.67 µg/mL).

Q: And the MIC [33]?
A: Its MIC is 2.12 µM (≈ 4.67 µg/mL).

Q: And the MIC (Escherichia coli MC1061)?
A: Its MIC is 4.24 µM (≈ 9.33 µg/mL).

Q: What about the MIC [34] of the same compound?
A: Its MIC is no less than 48 µM.

Q: And the MIC [35]?
A: The MIC was 4.24 µM (≈ 9.33 µg/mL).

Q: What about the MIC [36] of the same compound?
A: Its MIC is 4.24 µM (≈ 9.33 µg/mL).

Q: And the MIC [37]?
A: The MIC was 4.24 µM (≈ 9.33 µg/mL).

Q: What about the MIC [38] of the same compound?
A: Its MIC is no less than 48 µM.

Q: What about the MIC (Aeromonas sobria) of the same compound?
A: Its MIC is no less than 48 µM.

Q: And the MIC (Edwardsiella tarda)?
A: The MIC was no less than 48 µM.
